Counter-ions that a name gives are not always drawn.
biological target: Human LATS2 catalytic domain (Homo sapiens (Human), UniProt Q9NRM7); experiment: LATS2 High ATP HTRF Assay; format: biochemical; conditions: no asterisk: LATS2 High ATP HTRF Assay, 5000 μM ATP, 0.05 nM LATS2
Protocol: Human LATS2 catalytic domain which contains the amino acids G553-V1088 (accession NP_055387) was purified in-house. The LATS2 catalytic domain was co-purified with Mob1b (accession NP_775739). The LATS2 biochemical HTRF assay was performed using the HTRF KinEASE-STK S1 Kit (Cisbio, Cat #62ST1PEC), following the protocol from the manufacturer. Compounds were dispensed by the Echo Liquid Handler (Labcyte) into a white 384-well plate (PerkinElmer, Cat #6008289). 3 uL of 2×LATS2 enzyme solution was added to the compounds, following by a 10 minute incubation at room temperature. Then, 2×ATP and STK S1 peptide solution was added to initiate the one hour enzyme reaction at room temperature. The final condition of the reaction was 0.2 nM LATS2, 50 μM ATP, 0.5 μM STK S1 peptide in 50 mM HEPES pH7.2, 10 mM MgCl2, 0.1% BGG, 0.005% Brij-35, 1 mM DTT. The reaction was quenched by adding 6 uL of the detection mixture which contained Streptavidin XL665 and STK Antibody-Cryptate (Cisbio), incubate for 1 hour at room temperature. The HTRF (665 nm/620 nm) signal was read on the Envision plater reader (PerkinElmer). The IC50 values were determined by fitting the % inhibition with a nonlinear four-parameter logistical equation. The Ki values were calculated using the Cheng-Prusoff equation for a competitive inhibitor, IC50═Ki (1+S/Km)+M [E] with ATP Km for LATS2=105 μM.
The LATS2 high ATP HTRF assay was performed using the same protocol as the Standard LATS2 HTRF assay. The final condition of the reaction was 0.05 nM LATS2, 5000 μM ATP, 0.5 μM STK S1 peptide in 50 mM HEPES pH7.2, 10 mM MgCl2, 0.1% BGG, 0.005% Brij-35, 1 mM DTT and the 2 hours enzyme reaction at room temperature.

Human LATS2 catalytic domain, sequence (Q9NRM7 553-1088): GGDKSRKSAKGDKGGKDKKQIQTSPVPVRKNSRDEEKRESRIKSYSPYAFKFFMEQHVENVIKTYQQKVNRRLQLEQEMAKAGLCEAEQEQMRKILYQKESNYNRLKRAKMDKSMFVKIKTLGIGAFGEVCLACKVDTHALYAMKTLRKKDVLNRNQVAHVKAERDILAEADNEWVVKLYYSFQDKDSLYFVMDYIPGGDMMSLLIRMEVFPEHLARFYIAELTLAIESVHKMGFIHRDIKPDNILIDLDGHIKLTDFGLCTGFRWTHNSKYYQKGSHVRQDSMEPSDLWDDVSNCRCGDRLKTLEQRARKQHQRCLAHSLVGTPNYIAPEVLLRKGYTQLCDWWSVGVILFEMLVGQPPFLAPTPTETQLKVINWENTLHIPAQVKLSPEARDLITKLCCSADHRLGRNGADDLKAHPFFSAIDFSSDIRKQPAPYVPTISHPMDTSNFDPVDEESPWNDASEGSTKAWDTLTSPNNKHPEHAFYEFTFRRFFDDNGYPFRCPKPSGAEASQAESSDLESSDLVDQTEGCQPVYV
Human LATS2 catalytic domain, sequence (Q7L9L4 whole entry partner, the tested form may be a part): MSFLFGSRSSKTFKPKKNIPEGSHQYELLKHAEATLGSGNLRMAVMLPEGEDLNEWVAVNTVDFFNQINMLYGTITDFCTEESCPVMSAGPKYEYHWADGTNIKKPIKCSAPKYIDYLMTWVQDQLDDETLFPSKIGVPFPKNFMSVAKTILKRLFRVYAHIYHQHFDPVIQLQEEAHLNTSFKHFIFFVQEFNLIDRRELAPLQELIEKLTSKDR

Ki | SMILES
0.97 nM | O[C@H]1CC[C@@H]1N1CCC2(CCN(c3nc(-c4ccncc4)nc4cnccc34)CC2)C1 (single isomer, unassigned) [Compound 178]
16.7 nM | CC(=O)N1CCC2(CCN(c3nc(-c4ccncc4)nc4cnccc34)CC2)C1 [Compound 125, 1-(8-(2-(pyridin-4-yl)pyrido[3,4-d]pyrimidin-4-yl)-2,8-diazaspiro[4.5]decan-2-yl)ethan-1-one]
19.1 nM | c1cc(-c2nc(N3CCC4(CCN(c5cc[nH]n5)C4)CC3)c3ccncc3n2)ccn1 [Compound 139, 4-(2-(1H-pyrazol-3-yl)-2,8-diazaspiro[4.5]decan-8-yl)-2-(pyridin-4-yl)pyrido[3,4-d]pyrimidine]
88.4 nM | c1ccc(N2CCC3(CCN(c4nc(-c5ccncc5)nc5cnccc45)CC3)C2)cc1 [Compound 140, 4-(2-phenyl-2,8-diazaspiro[4.5]decan-8-yl)-2-(pyridin-4-yl)pyrido[3,4-d]pyrimidine]
51.4 nM | N#Cc1[nH]ncc1-c1nc(N2CCC3(CCNC3)CC2)c2ccncc2n1 [Compound 155, 4-(4-(2,8-diazaspiro[4.5]decan-8-yl)pyrido[3,4-d]pyrimidin-2-yl)-1H-pyrazole-5-carbonitrile]
6.58 nM | CCC(=O)NCc1cc2c(N3CCC4(CCNC4)CC3)nc(-c3ccncc3)nc2cn1 [Compound 159, N-((2-(pyridin-4-yl)-4-(2,8-diazaspiro[4.5]decan-8-yl)pyrido[3,4-d]pyrimidin-6-yl)methyl)propionamide]
7.4 nM | CN(C)C(=O)C1CC2(CCN(c3nc(-c4ccncc4)nc4cnccc34)CC2)CN1 (stereo not drawn) [Compound 173, N,N-dimethyl-8-(2-(pyridin-4-yl)pyrido[3,4-d]pyrimidin-4-yl)-2,8-diazaspiro[4.5]decane-3-carboxamide]
11.1 nM | O=C(C1CC2(CCN(c3nc(-c4ccncc4)nc4cnccc34)CC2)CN1)N1CCCC1 (stereo not drawn) [Compound 174, (8-(2-(pyridin-4-yl)pyrido[3,4-d]pyrimidin-4-yl)-2,8-diazaspiro[4.5]decan-3-yl)(pyrrolidin-1-yl)methanone]
22.6 nM | O=C(C1CC2(CCN(c3nc(-c4ccncc4)nc4cnccc34)CC2)CN1)N1CCOCC1 (stereo not drawn) [Compound 175, morpholino(8-(2-(pyridin-4-yl)pyrido[3,4-d]pyrimidin-4-yl)-2,8-diazaspiro[4.5]decan-3-yl)methanone]
17.5 nM | N#Cc1cnccc1-c1nc(N2CCC3(CCNC3)CC2)c2ccncc2n1 [Compound 183, 4-(4-(2,8-diazaspiro[4.5]decan-8-yl)pyrido[3,4-d]pyrimidin-2-yl)nicotinonitrile]
5.96 nM | Fc1[nH]ncc1-c1nc(N2CCC3(CCNC3)CC2)c2ccncc2n1 [Compound 188, 2-(5-fluoro-1H-pyrazol-4-yl)-4-(2,8-diazaspiro[4.5]decan-8-yl)pyrido[3,4-d]pyrimidine]
0.028 nM | c1cc(-c2nc(N3CCC4(CCNC4)CC3)c3c(C4CC4)cncc3n2)ccn1 [Compound 191, 5-cyclopropyl-2-(pyridin-4-yl)-4-(2,8-diazaspiro[4.5]decan-8-yl)pyrido[3,4-d]pyrimidine]
1.38 nM | FC(F)(F)Cc1nccc2c(N3CCC4(CCNC4)CC3)nc(-c3ccncc3)nc12 [Compound 192, 2-(pyridin-4-yl)-4-(2,8-diazaspiro[4.5]decan-8-yl)-8-(2,2,2-trifluoroethyl)pyrido[3,4-d]pyrimidine]
0.041 nM | FC(F)(F)Cc1cc2c(N3CCC4(CCNC4)CC3)nc(-c3ccncc3)nc2cn1 [Compound 193, 2-(pyridin-4-yl)-4-(2,8-diazaspiro[4.5]decan-8-yl)-6-(2,2,2-trifluoroethyl)pyrido[3,4-d]pyrimidine]
0.12 nM | Cc1n[nH]cc1-c1nc(N2CCC3(CCN(C)C3)CC2)c2cc(CC(F)(F)F)ncc2n1 [Compound 194, 2-(3-methyl-1H-pyrazol-4-yl)-4-(2-methyl-2,8-diazaspiro[4.5]decan-8-yl)-6-(2,2,2-trifluoroethyl)pyrido[3,4-d]pyrimidine]
0.039 nM | CN1CCC2(CCN(c3nc(-c4ccncc4)nc4cnc(CC(F)(F)F)cc34)CC2)C1 [Compound 195, 4-(2-methyl-2,8-diazaspiro[4.5]decan-8-yl)-2-(pyridin-4-yl)-6-(2,2,2-trifluoroethyl)pyrido[3,4-d]pyrimidine]
13 nM | Cc1cnsc1-c1nc(N2CCC3(CCNC3)CC2)c2ccncc2n1 [Compound 244, 5-(4-(2,8-diazaspiro[4.5]decan-8-yl)pyrido[3,4-d]pyrimidin-2-yl)-4-methylisothiazole]
11 nM | CC(=O)N1CC(Oc2cncc3nc(-c4ccncc4)nc(N4CCC5(CCN(C)C5)CC4)c23)C1 [Compound 278, 1-(3-((4-(2-Methyl-2,8-diazaspiro[4.5]decan-8-yl)-2-(pyridin-4-yl)pyrido[3,4-d]pyrimidin-5-yl)oxy)azetidin-1-yl)ethan-1-one]
0.015 nM | COc1cncc2nc(-c3cn[nH]c3C)nc(N3CCC4(CCN(CC(F)F)C4)CC3)c12 [Compound 281, 4-(2-(2,2-difluoroethyl)-2,8-diazaspiro[4.5]decan-8-yl)-5-methoxy-2-(5-methyl-1H-pyrazol-4-yl)pyrido[3,4-d]pyrimidine]
0.039 nM | COc1cncc2nc(-c3ccncc3)nc(N3CCC4(CCN(CC5(F)COC5)C4)CC3)c12 [Compound 282, 4-[2-[(3-Fluorooxetan-3-yl)methyl]-2,8-diazaspiro[4.5]decan-8-yl]-5-methoxy-2-(4-pyridyl)pyrido[3,4-d]pyrimidine]
0.096 nM | COc1cncc2nc(-c3ccncc3)nc(N3CCC4(CCN(CC(C)(O)C(F)(F)F)C4)CC3)c12 (stereo not drawn) [Compound 283, 1,1,1-Trifluoro-3-[8-[5-methoxy-2-(4-pyridyl)pyrido[3,4-d]pyrimidin-4-yl]-2,8-diazaspiro[4.5]decan-2-yl]-2-methyl-propan-2-ol]
4.1 nM | CN1CCC2(CCN(c3nc(-c4ccncc4)nc4c(C#N)nccc34)CC2)C1 [Compound 284, 4-(2-Methyl-2,8-diazaspiro[4.5]decan-8-yl)-2-(pyridin-4-yl)pyrido[3,4-d]pyrimidine-8-carbonitrile]
14.6 nM | c1cc(-c2cc(N3CCC4(CCNC4)CC3)c3ccncc3n2)ccn1 [Example 200, 2-(Pyridin-4-yl)-4-(2,8-diazaspiro[4.5]decan-8-yl)-1,7-naphthyridine]
11.3 nM | c1cc(-c2cc(N3CCC4(CCNC4)CC3)c3ccncc3n2)ncn1 [Example 201, 2-(pyrimidin-4-yl)-4-(2,8-diazaspiro[4.5]decan-8-yl)-1,7-naphthyridine trifluoroacetate]
23 nM | [O-][n+]1ccc2c(N3CCC4(CCNC4)CC3)nc(-c3ccncc3)nc2c1 [Example 207, 2-(pyridin-4-yl)-4-(2,8-diazaspiro[4.5]decan-8-yl)pyrido[3,4-d]pyrimidine 7-oxide]
60 nM | Cc1nn(C)cc1-c1nc(N2CCC3(CC2)CCN(C2CCCC2)C3)c2ccncc2n1 [Example 208, 4-(2-cyclopentyl-2,8-diazaspiro[4.5]decan-8-yl)-2-(1,3-dimethyl-1H-pyrazol-4-yl)pyrido[3,4-d]pyrimidine]
45 nM | CN1CCC2(CCN(c3nc(-c4ccncc4)nc4cnc(C(F)(F)F)cc34)CC2)C1 [Example 209, 4-(2-methyl-2,8-diazaspiro[4.5]decan-8-yl)-2-(pyridin-4-yl)-6-(trifluoromethyl)pyrido[3,4-d]pyrimidine]
0.25 nM | Cc1n[nH]cc1-c1nc(N2CCC3(CCN(CCS(=O)(=O)N(C)C)C3)CC2)c2ccncc2n1 [Example 210, N,N-dimethyl-2-(8-(2-(3-methyl-1H-pyrazol-4-yl)pyrido[3,4-d]pyrimidin-4-yl)-2,8-diazaspiro[4.5]decan-2-yl)ethanesulfonamide]
19 nM | Cc1n[nH]cc1-c1nc(N2CCC3(CCNC3)CC2)c2ccnc(O)c2n1 [Example 237, 2-(3-methyl-1H-pyrazol-4-yl)-4-(2,8-diazaspiro[4.5]decan-8-yl)pyrido[3,4-d]pyrimidin-8-ol]

SMILES | Ki
COc1nccc2c(N3CCC4(CCN(C)C4)CC3)nc(-c3ccncc3)nc12 [Example 203, 8-methoxy-4-(2-methyl-2,8-diazaspiro[4.5]decan-8-yl)-2-(pyridin-4-yl)pyrido[3,4-d]pyrimidine] | 80.2 nM

Reference: US20240174696A1, “2,8-DIAZASPIRO[4.5]DECANE COMPOUNDS” (Genentech, Inc., priority 2021, published 2024)
